“Also recorded” adds a separate entry of the source. No end group written: not given here.
Experiments:
[1] = test system: CA1 pyramidal neurons in acute hippocampal slices from Hgsnat-Geo and Hgsnat^P304L mice; test: Miniature excitatory postsynaptic currents (mEPSC), whole cell voltage clamp in acute hippocampal slices; format: cell-based, mouse; settings: for mEPSC amplitude and frequency deficits: Hgsnat-Geo and Hgsnat^P311L (P304L) slices
Procedure: Models and developmental time points: Hippocampal slices from Hgsnat-Geo and Hgsnat^P304L mice; P14-20 and P45-60.
(§1) Method: Whole cell voltage clamp electrophysiology recordings (miniature synaptic currents) were conducted on CA1 pyramidal neurons in acute hippocampal slices.
Acute hippocampal slices were prepared as follows. Briefly, animals were anaesthetized deeply with isoflurane and decapitated. The brain was dissected carefully and transferred rapidly into an ice-cold (0-4° C.) solution containing the following (in mM): 250 sucrose, 2 KCl, 1.25 NaH2PO4, 26 NaHCO3, 7 MgSO4, 0.5 CaCl2 and 10 glucose, pH 7.4. The solution was oxygenated continuously with 95% O2 and 5% CO2, 330-340 mOsm/L. Transverse hippocampal slices (thickness, 300 μm) were cut using a vibratome (VT1000S; Leica Microsystems), transferred to a bath at room temperature (23° C.) with standard ACSF at pH 7.4 containing the following (in mM): 126 NaCl, 3 KCl, 1 NaH2PO^4, 25 NaHCO3, 2 MgSO4, 2 CaCl2), 10 glucose, continuously saturated with 95% 02 and 5% CO2 and allowed to recover for 1 h. During the experiments, slices were transferred to the recording chamber at physiological temperature (30-33° C.) continuously perfused with standard ACSF, as described above, at 2 ml/min. Pyramidal CA1 neurons from the hippocampus were identified visually using a 40× water immersion objective. Whole-cell patch-clamp recordings were obtained from single cells in voltage- or current-clamp mode and only 1 cell per slice was recorded to enable post-hoc identification and immunohistochemical processing. Recording pipettes (4-6 MΩ) were filled with a K-gluconate based solution for voltage-clamp recordings (in mM): 130 K-gluconate, 10 KCl, 5 diNa-phosphocreatine. 10 HEPES, 2.5 MgCl2, 0.5CaCl2,1 EGTA, 3 ATP-Tris, 0.4 GTP-Li, 0.3% biocytin, pH 7.2-7.4, 280-290 mOsm/L.
After obtaining whole cell configuration, passive membrane properties were monitored for 5 min and current clamp recordings were done to measure action potential characteristics. […]. Cells were voltage clamped at −70 mV for mEPSCs recording and then held at 0 mV (calculated from the reversal potential of Cl) for mIPSCs recording. Data acquisition (filtered at 2-3 kHz and digitized at 15 kHz; Digidata 1440A, Molecular Devices, CA, USA) was performed using the Axopatch 200B amplifier and the Clampex 10.6 software (Molecular Devices). Both mEPSCs and mIPSCs were recorded for 7 min and a running template on a stable baseline (minimum of 30 events) was used for the analysis of miniature events on MiniAnalysis. Clampfit 10.2 software was used for analysis of action potential characteristics and other passive membrane properties.
This example tested AVP6's effect on synaptic signaling in acute hippocampal slices of MPS IIIC (both Hgsnat^Geo and Hgsnat^P304L) mice. […]

[2] = test system: Hgsnat-Geo and Hgsnat^P304L MPS IIIC mice; test: Novel Object Recognition test; format: in vivo, mouse
Procedure: Method: Novel object recognition test that studies working memory of mice by measuring their ability to discriminate a familiar from a novel object. AVP6 was administered intranasally at a daily dose 50 μg/kg (5 μl/nostril) for 10 consecutive days before the experimental day.
Novel object recognition test was used for assessing short-term recognition memory. Mice were placed individually in a 44×33×20 cm (length×width×height) testing chamber with white Plexiglas walls for 10 min habituation period and returned to their home cage. The next day, mice were placed in the testing chamber for 10 min with two identical objects (red plastic towers, 3×1.5×4.5 cm), returned to the home cages, and 1 hour later, placed back into the testing chamber in the presence of one of the original objects and one novel object (a blue plastic base, 4.5×4.5×2 cm) for 10 min. After each mouse, the test arena as well as the plastic objects were cleaned with 70% ethanol to avoid olfactory cue bias. The discrimination index (DI) was calculated as the difference of the exploration time between the novel and old object divided by total exploration time.
Starting from 3 weeks of age, WT C57B16 and homozygous Hgsnat^P304L male and female mice were randomly divided in treatment and control groups (6-13 mice/sex/genotype/treatment; see Table I). The control group was daily administered with saline (5 μL to each nostril), while for the treatment group, saline was supplemented with 125 µg of AVP6/mL, which would result in a dose of approximately 50 μg/kg BW/day. The peptide formulation was prepared once, aliquoted and kept frozen at −80° C. until use. At 4 months, all mice were studied by EPM, OF, YM and NOR behavioral tests. Administration of the drug or saline was continued through the days on which the assays were conducted. Then approximately at 5 months 4-5 mice in each group were sacrificed. Their blood plasma was collected, and their tissues were either snap-frozen or fixed and cryopreserved to analyze CNS pathology as described above. For the remaining mice, treatment was continued and their behaviour was studied again at the age of 6 months using OF. NOR and YM tests. Starting from the age of 8 months, Hgsnat^P304L treated and untreated mice were daily studied for the signs of urinary retention. When such signs were detected, the mice were studied by ERG and sacrificed within 1-2 days. […]
The ability of the peptide to improve the memory deficits was tested in the 4-months-old Hgsnat-Geo mice using the Novel Object Recognition (NOR) test that studies working memory of mice by measuring their ability to discriminate a familiar object a novel one. […] Immediately after the test, mice were sacrificed and the levels of mature BDNF protein were measured in their hippocampi by immunoblot.

[3] = test system: Hgsnat^P304L mice; test: Wet spleen weight at sacrifice (splenomegaly); format: in vivo, mouse; settings: chronic daily 50 μg/kg BW; Hgsnat^P304L mice at sacrifice (9.5-11 months); vs saline
[4] = test system: CA1 pyramidal neurons in acute hippocampal slices from Hgsnat^Geo mice; test: Miniature inhibitory postsynaptic currents (mIPSC), whole cell voltage clamp in acute hippocampal slices; format: cell-based, mouse; settings: 10 μM bath application, P14-20
Procedure: as §1
Acute hippocampal slices were prepared as follows. Briefly, animals were anaesthetized deeply with isoflurane and decapitated. The brain was dissected carefully and transferred rapidly into an ice-cold (0-4° C.) solution containing the following (in mM): 250 sucrose, 2 KCl, 1.25 NaH2PO4, 26 NaHCO3, 7 MgSO4, 0.5 CaCl2 and 10 glucose, pH 7.4. […] Whole-cell patch-clamp recordings were obtained from single cells in voltage- or current-clamp mode and only 1 cell per slice was recorded to enable post-hoc identification and immunohistochemical processing. […]
After obtaining whole cell configuration, passive membrane properties were monitored for 5 min and current clamp recordings were done to measure action potential characteristics. […] Cells were voltage clamped at −70 mV for mEPSCs recording and then held at 0 mV (calculated from the reversal potential of Cl) for mIPSCs recording. […] Both mEPSCs and mIPSCs were recorded for 7 min and a running template on a stable baseline (minimum of 30 events) was used for the analysis of miniature events on MiniAnalysis. […]

[5] = test system: Hgsnat^P304L MPS IIIC mice; test: Open Field test; format: in vivo, mouse; settings: 6-month-old Hgsnat^P311L (P304L) mice
[6] = single intranasal 10 μg/kg (low dose)
[7] = single intranasal 500 μg/kg (high dose)

AVP6: N-terminally acetylated Semax, a nootropic peptide having the amino acid sequence of MEHFPGP (SEQ ID NO:1) (Ac-MEHFPGP)
mEPSC amplitude and frequency deficits ([1]; 10 μM bath application, P14-20): recovered deficits in mEPSC amplitude and frequency; also recorded: deficit is rescued | mEPSC amplitude and frequency deficits ([1]; 10 μM bath application, P45-60): recovered deficits in mEPSC amplitude and frequency; also recorded: deficit is rescued | mEPSC amplitude and frequency in WT animals ([1]; 10 μM bath application, P45-60, WT slices): trend for an increase | reduced amplitude and frequency of mEPSC ([1]; acute bath application, MPSIIIC mouse hippocampal slices (Example 1, FIG. 1)): significant restoration | short-term memory deficit, Novel Object Recognition ([2]; chronic 50 μg/kg BW/day, Hgsnat^P304L mice at 6 months): partially rescues deficits in spatial and short-term memory | short-term memory deficit (discrimination and recognition indexes), Novel Object Recognition ([2]; chronic daily intranasal 50 μg/kg BW from 3 weeks, Hgsnat^P304L mice at 4 months): rescues deficits in spatial and short-term memory; also recorded: show the rescue of all above deficits | working (short-term) memory deficit: discrimination index and recognition index, Novel Object Recognition ([2]; intranasal 50 μg/kg daily for 10 consecutive days, 4-month-old Hgsnat-Geo mice): significantly recovered memory deficits; also recorded: rescues working memory deficits; also recorded: This deficit is rescued | discrimination index and recognition index in WT mice, Novel Object Recognition ([2]; intranasal 50 μg/kg daily for 10 days, WT mice vs saline): trend for an increase | spleen weight / splenomegaly [3]: significantly lower spleen weight | mIPSC amplitude and frequency deficits [4]: did not recover deficits in mIPSC amplitude and frequency; also recorded: did not increase frequencies or amplitudes of mIPSC; also recorded: does not increase | hyperactivity, Open Field [5, 6]: failed to rescue hyperactivity or reduced anxiety; also recorded: do not rescue hyperactivity | reduced anxiety, Open Field [5, 6]: failed to rescue hyperactivity or reduced anxiety | hyperactivity, Open Field [5, 7]: failed to rescue hyperactivity or reduced anxiety; also recorded: do not rescue hyperactivity | reduced anxiety, Open Field [5, 7]: failed to rescue hyperactivity or reduced anxiety

Source: patent publication US20240043473A1, “NOOTROPIC PEPTIDES FOR TREATING LYSOSOMAL STORAGE DISEASES” (Phoenix Nest Inc., priority 2021, published 2024)
